Assay results taken from US7897627B2, “Heteroaryl derivatives as orexin receptor antagonists” (Hoffmann-La Roche Inc., priority 2007, dated 2011).

molecular target: T1, human orexin-2 (hOX2) receptor (Homo sapiens, UniProt O43614); assay: Intracellular Ca2+ mobilization assay (FLIPR), CHO(dHFr-) cells expressing hOX2, orexin-A as agonist; type: cell-based; conditions: antagonist Kb=IC50/(1+[A]/EC50); orexin-A at EC80; CHO(dHFr-)-OX2R cells; antagonist applied 25 min before agonist
T1 construct: expressed in transfected cells
T1 sequence (O43614 1-444): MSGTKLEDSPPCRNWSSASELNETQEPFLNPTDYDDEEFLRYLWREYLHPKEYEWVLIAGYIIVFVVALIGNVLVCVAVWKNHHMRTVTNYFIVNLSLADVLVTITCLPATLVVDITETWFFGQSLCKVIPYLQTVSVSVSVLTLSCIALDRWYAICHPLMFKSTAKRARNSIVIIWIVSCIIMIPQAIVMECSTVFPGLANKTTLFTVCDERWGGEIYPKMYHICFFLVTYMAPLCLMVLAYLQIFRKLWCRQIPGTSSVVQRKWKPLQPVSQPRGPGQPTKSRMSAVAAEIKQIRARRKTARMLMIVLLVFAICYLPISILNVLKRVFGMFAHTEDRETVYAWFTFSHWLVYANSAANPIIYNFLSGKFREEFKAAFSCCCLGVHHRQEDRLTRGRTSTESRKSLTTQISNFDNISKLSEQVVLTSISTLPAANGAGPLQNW
Experimental: Intracellular Ca^2+ Mobilization Assay
The Chinese Hamster Ovary (dHFr-) mutant cell line stably expressing human orexin-1 (hOX1) or human orexin-2 (hOX2) receptors were maintained in Dulbecco's Modified Eagle Medium (1×) with GlutaMax™1, 4500 mg/L D-Glucose and Sodium Pyruvate (Catalog No. 31966-021, Invitrogen, Carlsbad, Calif.), 5% dialyzed fetal calf serum (Catalog No. 26400-044), 100 μg/ml penicillin and 100 μg/ml streptomycin. The cells were seeded at 5×10^4 cells/well in the poly-D-lysine treated, 96-well, black/clear-bottomed plates (Catalog No. BD356640, BD Biosciences, Palo Alto, Calif.). 24 h later, the cells were loaded for 1 h at 37° C. with 4 μM Flou-4 acetoxymethyl ester (Catalog No. F-14202, Molecular Probes, Eugene, Oreg.) in FLIPR buffer (1×HBSS, 20 mM HEPES, 2.5 mM Probenecid). Hanks' Balanced Salt Solution (HBSS) (10×) (catalog No. 14065-049) and HEPES (1M) (catalog No. 15630-056) were purchased from Invitrogen, Carlsbad, Calif. Probenecid (250 mM) (catalog No. P8761) was from Sigma, Buchs, Switzerland. The cells were washed five times with FLIPR buffer to remove excess dye and intracellular calcium mobilization, [Ca^2−]i were measured using a Fluorometric Imaging Plate Reader (FLIPR-96, Molecular Devices, Menlo Park, Calif.) as described previously (Malherbe et al., Mol. Pharmacol., 64, 823-832, 2003). Orexin A (catalog No. 1455, Toris Cookson Ltd, Bristol, UK) was used as agonist. Orexin A ([…] stock solution in DMSO) was diluted in FLIPR buffer+0.1% BSA. The EC50 and EC80 values of orexin-A were measured daily from standard agonist concentration-response curves in CHO(dHFr-)-OX1R and -OX2R cell lines. All compounds were dissolved in 100% DMSO. Inhibition curves were determined by addition of 11 concentrations (0.0001-10 μM) of inhibitory compounds and using EC80 value of orexin-A as agonist (a concentration which gave 80% of max agonist response, determined daily). The antagonists were applied 25 min (incubation at 37° C.) before the application of the agonist. Responses were measured as peak increase in fluorescence minus basal, normalized to the maximal stimulatory effect induced by EC80 value of orexin-A or orexin-B. Inhibition curves were fitted according to the Hill equation: y=100/(1+(x/IC50)^nH), where nH=slope factor using Excel-fit 4 software (Microsoft).
Kb values were calculated according to the following equation Kb=IC50/(1+[A]/EC50) where A is the concentration of agonist added which is very close to agonist EC80 value, and IC50 and EC50 values were derived from the antagonist inhibition and orexin-A or B agonist curves, respectively.

Kb	SMILES
0.0298 µM	O=C(c1c(F)cccc1C(F)(F)F)N1CC[C@@H](Nc2nc3ccc(Cl)cc3o2)C1 [Example 72, [(R)-3-(6-Chloro-benzooxazol-2-ylamino)-pyrrolidin-1-yl]-(2-fluoro-6-trifluoromethyl-phenyl)-methanone]
0.0163 µM	Cc1cccc(-c2ccccc2C(=O)N2CC[C@@H](Nc3nc4ccc(Cl)cc4o3)C2)c1 [Example 75, [(R)-3-(6-Chloro-benzooxazol-2-ylamino)-pyrrolidin-1-yl]-(3′-methyl-biphenyl-2-yl)-methanone]
0.0104 µM	COc1cccc(OC)c1C(=O)N1CCC(Nc2cnc3ccccc3n2)C1 (centres unmarked) [Example 6, (2,6-Dimethoxy-phenyl)-[3-(quinoxalin-2-ylamino)-pyrrolidin-1-yl]-methanone]
0.0426 µM	COc1cccc(OC)c1C(=O)N1CC[C@@H](Nc2nc3ccc(F)cc3o2)C1 [Example 95, (2,6-Dimethoxy-phenyl)-[(R)-3-(6-fluoro-benzooxazol-2-ylamino)-pyrrolidin-1-yl]-methanone]
0.028 µM	Cc1nc(C(=O)N2CC[C@@H](Nc3cnc4ccccc4n3)C2)c(-c2ccccc2)s1 [Example 189, (2-Methyl-5-phenyl-thiazol-4-yl)-[(R)-3-(quinoxalin-2-ylamino)-pyrrolidin-1-yl]-methanone]
0.0355 µM	Cc1onc(-c2ccccc2)c1C(=O)N1CC[C@@H](Nc2nc3ccc(F)c(F)c3o2)C1 [Example 151, [(R)-3-(6,7-Difluoro-benzooxazol-2-ylamino)-pyrrolidin-1-yl]-(5-methyl-3-phenyl-isoxazol-4-yl)-methanone]
0.0244 µM	Cc1noc(-c2ccccc2C(=O)N2CC[C@@H](Nc3cnc4cc(Cl)ccc4n3)C2)n1 [Example 178, [(R)-3-(6-Chloro-quinoxalin-2-ylamino)-pyrrolidin-1-yl]-[2-(3-methyl-[1,2,4]oxadiazol-5-yl)-phenyl]-methanone]
0.0024 µM	O=C(c1ccccc1-c1cccs1)N1CC[C@@H](Nc2nc3ccc(Cl)cc3o2)C1 [Example 70, [(R)-3-(6-Chloro-benzooxazol-2-ylamino)-pyrrolidin-1-yl]-(2-thiophen-2-yl-phenyl)-methanone]
0.0261 µM	Cc1onc(-c2ccccc2)c1C(=O)N1CC[C@@H](Nc2nc3ccc(F)cc3s2)C1 [Example 116, [(R)-3-(6-Fluoro-benzothiazol-2-ylamino)-pyrrolidin-1-yl]-(5-methyl-3-phenyl-isoxazol-4-yl)-methanone]
0.0054 µM	O=C(c1cnoc1-c1ccccc1)N1CC[C@@H](Nc2nc3ccc(Cl)cc3o2)C1 [Example 61, [(R)-3-(6-Chloro-benzooxazol-2-ylamino)-pyrrolidin-1-yl]-(5-phenyl-isoxazol-4-yl)-methanone]
0.0319 µM	COc1cccc(OC)c1C(=O)N1CC[C@@H](Nc2cnc3cc(F)ccc3n2)C1 [Example 110, (2,6-Dimethoxy-phenyl)-[(R)-3-(6-fluoro-quinoxalin-2-ylamino)-pyrrolidin-1-yl]-methanone]
0.047 µM	Cc1nc(C(=O)N2CC[C@@H](Nc3nc4ccc(F)cc4o3)C2)c(-c2ccccc2)s1 [Example 164, [(R)-3-(6-Fluoro-benzooxazol-2-ylamino)-pyrrolidin-1-yl]-(2-methyl-5-phenyl-thiazol-4-yl)-methanone]
0.0138 µM	O=C(c1ccccc1OC(F)(F)C(F)F)N1CC[C@@H](Nc2nc3cccc(F)c3o2)C1 [Example 141, [(R)-3-(7-Fluoro-benzooxazol-2-ylamino)-pyrrolidin-1-yl]-[2-(1,1,2,2-tetrafluoro-ethoxy)-phenyl]-methanone]
0.0097 µM	O=C(c1ccccc1OC(F)(F)F)N1CC[C@@H](Nc2nc3ccc(Cl)cc3o2)C1 [Example 71, [(R)-3-(6-Chloro-benzooxazol-2-ylamino)-pyrrolidin-1-yl]-(2-trifluoromethoxy-phenyl)-methanone]
0.0249 µM	CCOc1ccccc1C(=O)N1CC[C@@H](Nc2nc3ccc(Cl)cc3o2)C1 [Example 52, [(R)-3-(6-Chloro-benzooxazol-2-ylamino)-pyrrolidin-1-yl]-(2-ethoxy-phenyl)-methanone]
0.0394 µM	Cc1noc(-c2ccccc2C(=O)N2CC[C@@H](Nc3nc4cc(F)cc(F)c4s3)C2)n1 [Example 135, [(R)-3-(5,7-Difluoro-benzothiazol-2-ylamino)-pyrrolidin-1-yl]-[2-(3-methyl-[1,2,4]oxadiazol-5-yl)-phenyl]-methanone]
0.0219 µM	O=C(c1ccccc1C(F)(F)F)N1CC[C@@H](Nc2nc3ccc(Cl)cc3o2)C1 [Example 63, [(R)-3-(6-Chloro-benzooxazol-2-ylamino)-pyrrolidin-1-yl]-(2-trifluoromethyl-phenyl)-methanone]

Second part, the molecule before the results:

SMILES	Kb
Cc1ccc(C(F)(F)F)c(C(=O)N2CC[C@@H](Nc3cnc4cc(C(C)(C)C)ccc4n3)C2)c1 [Example 204]	0.0052 µM
O=C(c1ccccc1OC(F)(F)C(F)F)N1CC[C@@H](Nc2cnc3ccccc3n2)C1 [Example 184, [(R)-3-(Quinoxalin-2-ylamino)-pyrrolidin-1-yl]-[2-(1,1,2,2-tetrafluoro-ethoxy)-phenyl]-methanone]	0.0021 µM
Cc1ccc(C(F)(F)F)c(C(=O)N2CC[C@@H](Nc3nc4c(Cl)cccc4s3)C2)c1 [Example 203]	0.008 µM
Cc1ccc(C(F)(F)F)c(C(=O)N2CC[C@@H](Nc3cnc4cc(Cl)c(C)cc4n3)C2)c1 [Example 213]	0.0371 µM
Cc1ccc(C(F)(F)F)c(C(=O)N2CC[C@@H](Nc3cnc4cc(C)c(Cl)cc4n3)C2)c1 [Example 212]	0.0086 µM
Cc1ccc(C(F)(F)F)c(C(=O)N2CC[C@@H](Nc3nc4c(F)cccc4s3)C2)c1 [Example 124, [(R)-3-(4-Fluoro-benzothiazol-2-ylamino)-pyrrolidin-1-yl]-(5-methyl-2-trifluoromethyl-phenyl)-methanone]	0.0363 µM
O=C(c1ccccc1OC(F)(F)C(F)F)N1CC[C@@H](Nc2cnc3ccc(Cl)cc3n2)C1 [Example 192, [(R)-3-(7-Chloro-quinoxalin-2-ylamino)-pyrrolidin-1-yl]-[2-(1,1,2,2-tetrafluoro-ethoxy)-phenyl]-methanone]	0.0324 µM
Cc1ccc(C(F)(F)F)c(C(=O)N2CC[C@@H](Nc3nc4cc(F)c(F)cc4s3)C2)c1 [Example 202, [(R)-3-(5,6-Difluoro-benzothiazol-2-ylamino)-pyrrolidin-1-yl]-(5-methyl-2-trifluoromethyl-phenyl)-methanone]	0.0046 µM
Cc1ccc(C(F)(F)F)c(C(=O)N2CC[C@@H](Nc3cnc4ccccc4n3)C2)c1 [Example 185, (5-Methyl-2-trifluoromethyl-phenyl)-[(R)-3-(quinoxalin-2-ylamino)-pyrrolidin-1-yl]-methanone]	0.0075 µM
Cc1noc(-c2ccccc2C(=O)N2CC[C@@H](Nc3cnc4cc(F)c(F)cc4n3)C2)n1 [Example 169, [(R)-3-(6,7-Difluoro-quinoxalin-2-ylamino)-pyrrolidin-1-yl]-[2-(3-methyl-[1,2,4]oxadiazol-5-yl)-phenyl]-methanone]	0.0021 µM
COc1cccc(OC)c1C(=O)N1CC[C@@H](Nc2cnc3cc(Cl)ccc3n2)C1 [Example 41, [(R)-3-(6-Chloro-quinoxalin-2-ylamino)-pyrrolidin-1-yl]-(2,6-dimethoxy-phenyl)-methanone]	0.0302 µM
COc1cccc(OC)c1C(=O)N1CC[C@@H](Nc2nc3c(Cl)cccc3s2)C1 [Example 43, [(R)-3-(4-Chloro-benzothiazol-2-ylamino)-pyrrolidin-1-yl]-(2,6-dimethoxy-phenyl)-methanone]	0.0015 µM
